The values below come from article PMC3602366 (Insect biochemistry and molecular biology, 2013).

Assay [1] concerns the target MIP-R1 (I. scapularis myoinhibitory peptide receptor 1) (Ixodes scapularis, UniProt L7ZCA0). The assay is described as follows: cell-based.
A further assay deals with synganglion. The conditions noted are these: ref Kaufman, 1978; McSwain et al., 1992; cited from earlier work.
In another assay the test system is SG acini. The conditions noted are these: paracrine factor; ref Kaufman et al., 1999; Šimo et al., 2011a; cited from earlier work.
The target in assay [2] is SIFa-R (I. scapularis SIFamide receptor) (Ixodes scapularis, UniProt L7Z4E7). Kind of assay: Receptor functional assay. It counts as cell-based.

Where no end group is shown, it is not given here.

As to ENHWNDLSGYW-NH2 [MIP3], a half-maximal response in assay [1] (EC50) required 15 nM. GGDWNALSGMW-NH2 [MIP1]: the response in assay [1] was half-maximal at 40 nM (EC50). Take `CC[C@@H]1C(=O)OC[C@@H]1Cc1cncn1C` [pilocarpine]: in the assay on synganglion, the “activation of the synganglion” value is “activates the synganglion”. On to `NCCc1ccc(O)c(O)c1` [Dopamine], for which, in the assay with SG acini, the “activation of SG acini” value is “acts as a paracrine factor for the activation of SG acini for fluid secretion”.

In turn, ASDWNRLSGMW-NH2 [MIP2] registered an EC50 in assay [1] of 32 nM. In other words, the double-digit nanomolar range.

Consider AYRKPPFNGSIF-NH2 [SIFamide], for which the EC50 in assay [2] is 5.8 nM.

A word on the EC50: it is the concentration at which the effect is half-maximal. High values mean a need for much substance, low ones an effect from little substance.
